Results as given in PubChem BioAssay AID2060363 (Molecular Pharmacology Branch, DTP, NCI, 2025).
Where “and” joins values, the source holds several entries; their conditions need not be identical. Identical values can stand only once.

Tested on: 156681-154-R-J1-PDC tumor spheroids, viability % test/control
Assay: Anticancer human tumor 156681-154-R-J1-PDC patient-derived melanoma cell line growth inhibition [TAK]
Conditions: spheroids with HUVEC and MSC; for viability, T/C: stronger effect = lower value
How it was run: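 Drug combinations, each paired with TAK-243 or ipatasertib, were tested on multi-cell spheroids of 60% malignant cells, 25% HUVEC and 15% hMSC. Top concentrations were at or near the clinical Cmax (10 microM if undetermined), decreasing by half-log; viability is given as % test/control.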

[1] = curve of first compound, second compound 0.3 µM
[2] = curve of first compound, second compound 0.949 µM
[3] = curve of first compound, second compound 3 µM
[4] = curve of first compound, second compound 9.49 µM
[5] = curve of first compound, second compound 30 µM
[6] = second compound 0.3 µM, first compound 0.000316 µM
[7] = second compound 0.3 µM, first compound 0.001 µM
[8] = second compound 0.3 µM, first compound 0.00316 µM
[9] = second compound 0.3 µM, first compound 0.01 µM
[10] = second compound 0.3 µM, first compound 0.0316 µM
[11] = second compound 0.3 µM, first compound 0.1 µM
[12] = second compound 0.949 µM, first compound 0.000316 µM
[13] = second compound 0.949 µM, first compound 0.001 µM
[14] = second compound 0.949 µM, first compound 0.00316 µM
[15] = second compound 0.949 µM, first compound 0.01 µM
[16] = second compound 0.949 µM, first compound 0.0316 µM
[17] = second compound 0.949 µM, first compound 0.1 µM
[18] = second compound 3 µM, first compound 0.000316 µM
[19] = second compound 3 µM, first compound 0.001 µM
[20] = second compound 3 µM, first compound 0.00316 µM
[21] = second compound 3 µM, first compound 0.01 µM
[22] = second compound 3 µM, first compound 0.0316 µM
[23] = second compound 3 µM, first compound 0.1 µM
[24] = second compound 9.49 µM, first compound 0.000316 µM
[25] = second compound 9.49 µM, first compound 0.001 µM
[26] = second compound 9.49 µM, first compound 0.00316 µM
[27] = second compound 9.49 µM, first compound 0.01 µM
[28] = second compound 9.49 µM, first compound 0.0316 µM
[29] = second compound 9.49 µM, first compound 0.1 µM
[30] = second compound 30 µM, first compound 0.000316 µM
[31] = second compound 30 µM, first compound 0.001 µM
[32] = second compound 30 µM, first compound 0.00316 µM
[33] = second compound 30 µM, first compound 0.01 µM
[34] = second compound 30 µM, first compound 0.0316 µM
[35] = second compound 30 µM, first compound 0.1 µM
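Further: spheroids exposed to compounds for 7 days before the endpoint.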

| Structure (SMILES) | IC50 [1] [nM] | IC50 [2] [nM] | IC50 [3] [nM] | IC50 [4] [nM] | IC50 [5] [nM] | viability, T/C [6] [%] | viability, T/C [7] [%] | viability, T/C [8] [%] | viability, T/C [9] [%] | viability, T/C [10] [%] | viability, T/C [11] [%] | viability, T/C [12] [%] | viability, T/C [13] [%] | viability, T/C [14] [%] | viability, T/C [15] [%] | viability, T/C [16] [%] | viability, T/C [17] [%] | viability, T/C [18] [%] | viability, T/C [19] [%] | viability, T/C [20] [%] | also measured |
| --- | --- | --- | --- | --- | --- | --- | --- | --- | --- | --- | --- | --- | --- | --- | --- | --- | --- | --- | --- | --- | --- |
| COC1CC2CCC(C)C(O)(O2)C(=O)C(=O)N2CCCCC2C(=O)OC(C(C)CC2CCC(OCCO)C(OC)C2)CC(=O)C(C)C=C(C)C(O)C(OC)C(=O)C(C)CC(C)C=CC=CC=C1C (configuration not stated) + CC(C)NCC(C(=O)N1CCN(c2ncnc3c2C(C)CC3O)CC1)c1ccc(Cl)cc1 | 29 | 2.9 | 0.525 | < 0.316 | < 0.316 | 80 | 79.9 | 65.6 | 55.7 | 51.8 | 45.9 | 80.8 | 65.2 | 48.4 | 45.1 | 46.5 | 40.7 | 51.8 | 49.1 | 37.5 | viability, T/C [21]: 32.5%; viability, T/C [22]: 28.6%; viability, T/C [23]: 29.4%; viability, T/C [24]: 31.6%; viability, T/C [25]: 28%; viability, T/C [26]: 21.2%; viability, T/C [27]: 18.8%; viability, T/C [28]: 19.5%; viability, T/C [29]: 17.4%; viability, T/C [30]: 15.9%; viability, T/C [31]: 13.5%; viability, T/C [32]: 12.1%; viability, T/C [33]: 8.24%; viability, T/C [34]: 9.33%; viability, T/C [35]: 8.33% |
| CC(C)n1nc(-c2ccc3oc(N)nc3c2)c2c(N)ncnc21 + CC(C)NCC(C(=O)N1CCN(c2ncnc3c2C(C)CC3O)CC1)c1ccc(Cl)cc1 | 26 | 12.5 | 2.4 | < 0.316 | < 0.316 | 94.5 | 91.8 | 84.1 | 69.4 | 45.9 | 25.2 | 83.4 | 85.4 | 63.8 | 58.6 | 32.1 | 20 | 65.4 | 57.3 | 46.2 | viability, T/C [21]: 38.3%; viability, T/C [22]: 19.7%; viability, T/C [23]: 11%; viability, T/C [24]: 39.9%; viability, T/C [25]: 33.4%; viability, T/C [26]: 23.3%; viability, T/C [27]: 16.3%; viability, T/C [28]: 11%; viability, T/C [29]: 4.26%; viability, T/C [30]: 15.5%; viability, T/C [31]: 14.4%; viability, T/C [32]: 12.3%; viability, T/C [33]: 7.31%; viability, T/C [34]: 3.39%; viability, T/C [35]: 1.21% |
| COc1c(OCCCN2CCOCC2)ccc2c3n(c(=NC(=O)c4cnc(N)nc4)nc12)CCN3 |  |  |  |  |  |  |  |  |  |  |  |  |  |  |  |  |  |  |  |  | viability, T/C (compound 0.00316 µM): 101% and 102%; viability, T/C (compound 0.01 µM): 91.1% and 89.1%; viability, T/C (compound 0.0316 µM): 67.9% and 77.9%; viability, T/C (compound 0.1 µM): 41.9% and 35.2%; viability, T/C (compound 0.316 µM): 13.5% and 10.8%; viability, T/C (compound 1 µM): 2.91% and 1.78%; IC50 (curve of compound): 67.3 nM and 67 nM |
